Holding throughout (assay): biochemical
Common to all, as to design: KINOMEscan scanMAX active site-directed competition binding assay, percent of control, 468 kinases
Common to all, as to conditions: competition binding, percent of control

Test [1] deals with FLT3(D835V) (Homo sapiens, UniProt P36888, D835V). In outline: (§1)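 Single-concentration screen (100 μM S-carvone) in a competition binding panel of 468 human kinases (KINOMEscan scanMAX); results given as percent of control, hit cutoff 35%.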
Test [2] has as its target MYO3A (Homo sapiens, UniProt Q8NEV4). In outline:
as §1

In test [3] the target is T1, p38-alpha (Homo sapiens, UniProt Q16539).
T1 construct: gene MAPK14
Put shortly: as §1

Test [4] deals with PIK3CD (Homo sapiens, UniProt O00329). In outline:
as §1

Test [5] deals with T2, RSK4(Kin.Dom.2-C-terminal) (Homo sapiens, UniProt Q9UK32).
T2 construct: gene RPS6KA6; Kin.Dom.2-C-terminal
In outline:
as §1

Test [6] deals with KIT(A829P) (Homo sapiens, UniProt P10721, A829P). In outline: as §1
The target in test [7] is RET (Homo sapiens, UniProt P07949). Put shortly: as §1
In test [8] the target is T3, HPK1 (Homo sapiens, UniProt Q92918).
T3 construct: gene MAP4K1
Put shortly:
as §1

The target in test [9] is SIK2 (Homo sapiens, UniProt Q9H0K1). In outline:
as §1

In test [10] the target is PIK3CA(E542K) (Homo sapiens, UniProt P42336, E542K). Put shortly:
as §1

Test [11] has as its target WNK4 (Homo sapiens, UniProt Q96J92). Put shortly: as §1
In test [12] the target is DAPK1 (Homo sapiens, UniProt P53355). Put shortly: as §1
Test [13] addresses T4, JAK1(JH2domain-pseudokinase) (Homo sapiens, UniProt P23458).
T4 construct: JH2domain-pseudokinase
In outline: as §1

Test [14] deals with RIPK2 (Homo sapiens, UniProt O43353). In outline: as §1

Consider 1 molecule from paper PMC10174618, “Monoterpenoid aryl hydrocarbon receptor allosteric antagonists protect against ultraviolet skin damage in female mice” (Nature Communications, 2023).

Structures are written as SMILES.

KIT(A829P), sequence (P10721 whole entry A829P): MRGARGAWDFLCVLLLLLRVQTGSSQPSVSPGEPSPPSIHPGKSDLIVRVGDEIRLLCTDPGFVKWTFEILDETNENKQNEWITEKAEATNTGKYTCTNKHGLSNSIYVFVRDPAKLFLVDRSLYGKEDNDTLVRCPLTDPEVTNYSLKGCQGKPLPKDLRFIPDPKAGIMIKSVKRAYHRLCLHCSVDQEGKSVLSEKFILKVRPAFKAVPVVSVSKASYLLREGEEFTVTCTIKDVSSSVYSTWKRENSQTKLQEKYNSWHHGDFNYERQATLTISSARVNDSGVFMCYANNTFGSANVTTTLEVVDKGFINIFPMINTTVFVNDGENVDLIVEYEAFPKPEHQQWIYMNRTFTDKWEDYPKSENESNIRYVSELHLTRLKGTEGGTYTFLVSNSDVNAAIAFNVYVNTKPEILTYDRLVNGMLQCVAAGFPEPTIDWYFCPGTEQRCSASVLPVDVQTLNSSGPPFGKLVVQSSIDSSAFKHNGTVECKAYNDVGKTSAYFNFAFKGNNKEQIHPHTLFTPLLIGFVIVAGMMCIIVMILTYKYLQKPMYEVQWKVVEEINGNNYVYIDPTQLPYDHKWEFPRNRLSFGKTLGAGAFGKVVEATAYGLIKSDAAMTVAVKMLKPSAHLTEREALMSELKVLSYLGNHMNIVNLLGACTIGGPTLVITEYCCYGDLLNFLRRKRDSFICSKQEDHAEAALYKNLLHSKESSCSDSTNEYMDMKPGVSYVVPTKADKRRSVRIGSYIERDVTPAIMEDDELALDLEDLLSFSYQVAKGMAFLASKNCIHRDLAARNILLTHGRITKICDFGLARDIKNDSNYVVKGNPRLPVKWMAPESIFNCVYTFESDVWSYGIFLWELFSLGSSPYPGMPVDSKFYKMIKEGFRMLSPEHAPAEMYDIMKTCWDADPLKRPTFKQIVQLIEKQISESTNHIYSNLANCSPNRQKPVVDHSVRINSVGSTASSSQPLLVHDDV
MYO3A, sequence (Q8NEV4 whole entry): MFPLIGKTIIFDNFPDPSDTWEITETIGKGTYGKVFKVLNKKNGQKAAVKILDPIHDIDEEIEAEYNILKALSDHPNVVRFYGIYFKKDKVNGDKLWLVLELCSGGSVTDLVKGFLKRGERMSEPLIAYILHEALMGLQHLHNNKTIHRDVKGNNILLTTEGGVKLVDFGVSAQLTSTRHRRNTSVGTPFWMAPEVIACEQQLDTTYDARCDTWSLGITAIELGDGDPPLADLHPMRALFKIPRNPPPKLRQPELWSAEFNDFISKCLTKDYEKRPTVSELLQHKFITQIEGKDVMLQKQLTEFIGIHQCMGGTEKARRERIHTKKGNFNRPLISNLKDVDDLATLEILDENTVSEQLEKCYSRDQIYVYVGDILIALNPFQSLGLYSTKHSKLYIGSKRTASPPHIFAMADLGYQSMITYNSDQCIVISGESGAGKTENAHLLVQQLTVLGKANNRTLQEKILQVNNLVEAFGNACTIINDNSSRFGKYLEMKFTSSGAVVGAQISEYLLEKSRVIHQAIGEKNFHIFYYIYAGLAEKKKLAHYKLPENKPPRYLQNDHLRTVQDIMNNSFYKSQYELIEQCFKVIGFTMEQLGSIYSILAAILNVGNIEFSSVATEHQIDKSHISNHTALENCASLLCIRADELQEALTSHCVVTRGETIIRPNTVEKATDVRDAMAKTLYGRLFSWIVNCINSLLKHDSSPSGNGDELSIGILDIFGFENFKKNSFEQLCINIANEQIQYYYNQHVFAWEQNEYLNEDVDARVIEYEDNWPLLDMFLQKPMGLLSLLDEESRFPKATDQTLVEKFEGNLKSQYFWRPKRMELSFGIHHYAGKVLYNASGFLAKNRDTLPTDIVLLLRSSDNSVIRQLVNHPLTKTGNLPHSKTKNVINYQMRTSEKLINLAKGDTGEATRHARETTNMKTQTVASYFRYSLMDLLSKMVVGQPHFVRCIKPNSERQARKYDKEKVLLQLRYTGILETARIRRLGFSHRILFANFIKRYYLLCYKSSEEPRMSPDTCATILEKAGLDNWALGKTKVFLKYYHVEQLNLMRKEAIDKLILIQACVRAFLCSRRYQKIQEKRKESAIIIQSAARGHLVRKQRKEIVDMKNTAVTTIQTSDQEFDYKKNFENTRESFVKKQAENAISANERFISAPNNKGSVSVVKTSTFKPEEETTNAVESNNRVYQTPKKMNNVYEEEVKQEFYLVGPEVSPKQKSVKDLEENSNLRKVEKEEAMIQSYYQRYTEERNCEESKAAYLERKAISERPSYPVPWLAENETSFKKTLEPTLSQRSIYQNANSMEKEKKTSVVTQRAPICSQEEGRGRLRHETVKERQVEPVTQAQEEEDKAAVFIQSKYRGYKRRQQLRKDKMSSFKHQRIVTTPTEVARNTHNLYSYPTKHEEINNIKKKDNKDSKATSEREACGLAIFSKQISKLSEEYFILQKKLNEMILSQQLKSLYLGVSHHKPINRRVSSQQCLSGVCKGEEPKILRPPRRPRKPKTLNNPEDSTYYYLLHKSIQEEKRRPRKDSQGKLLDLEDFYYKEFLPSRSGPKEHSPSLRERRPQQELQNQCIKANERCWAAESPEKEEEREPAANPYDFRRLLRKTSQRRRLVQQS
T1 sequence (Q16539 whole entry): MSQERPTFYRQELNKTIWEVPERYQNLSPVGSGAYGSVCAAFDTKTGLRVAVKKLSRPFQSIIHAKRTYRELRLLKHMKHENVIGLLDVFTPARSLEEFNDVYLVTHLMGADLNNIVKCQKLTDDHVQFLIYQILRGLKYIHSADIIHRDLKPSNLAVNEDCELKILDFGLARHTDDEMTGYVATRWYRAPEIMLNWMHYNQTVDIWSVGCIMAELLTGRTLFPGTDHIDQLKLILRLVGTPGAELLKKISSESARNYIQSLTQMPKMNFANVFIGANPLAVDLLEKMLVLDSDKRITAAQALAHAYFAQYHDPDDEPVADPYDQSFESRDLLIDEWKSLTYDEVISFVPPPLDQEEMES
DAPK1, sequence (P53355 whole entry): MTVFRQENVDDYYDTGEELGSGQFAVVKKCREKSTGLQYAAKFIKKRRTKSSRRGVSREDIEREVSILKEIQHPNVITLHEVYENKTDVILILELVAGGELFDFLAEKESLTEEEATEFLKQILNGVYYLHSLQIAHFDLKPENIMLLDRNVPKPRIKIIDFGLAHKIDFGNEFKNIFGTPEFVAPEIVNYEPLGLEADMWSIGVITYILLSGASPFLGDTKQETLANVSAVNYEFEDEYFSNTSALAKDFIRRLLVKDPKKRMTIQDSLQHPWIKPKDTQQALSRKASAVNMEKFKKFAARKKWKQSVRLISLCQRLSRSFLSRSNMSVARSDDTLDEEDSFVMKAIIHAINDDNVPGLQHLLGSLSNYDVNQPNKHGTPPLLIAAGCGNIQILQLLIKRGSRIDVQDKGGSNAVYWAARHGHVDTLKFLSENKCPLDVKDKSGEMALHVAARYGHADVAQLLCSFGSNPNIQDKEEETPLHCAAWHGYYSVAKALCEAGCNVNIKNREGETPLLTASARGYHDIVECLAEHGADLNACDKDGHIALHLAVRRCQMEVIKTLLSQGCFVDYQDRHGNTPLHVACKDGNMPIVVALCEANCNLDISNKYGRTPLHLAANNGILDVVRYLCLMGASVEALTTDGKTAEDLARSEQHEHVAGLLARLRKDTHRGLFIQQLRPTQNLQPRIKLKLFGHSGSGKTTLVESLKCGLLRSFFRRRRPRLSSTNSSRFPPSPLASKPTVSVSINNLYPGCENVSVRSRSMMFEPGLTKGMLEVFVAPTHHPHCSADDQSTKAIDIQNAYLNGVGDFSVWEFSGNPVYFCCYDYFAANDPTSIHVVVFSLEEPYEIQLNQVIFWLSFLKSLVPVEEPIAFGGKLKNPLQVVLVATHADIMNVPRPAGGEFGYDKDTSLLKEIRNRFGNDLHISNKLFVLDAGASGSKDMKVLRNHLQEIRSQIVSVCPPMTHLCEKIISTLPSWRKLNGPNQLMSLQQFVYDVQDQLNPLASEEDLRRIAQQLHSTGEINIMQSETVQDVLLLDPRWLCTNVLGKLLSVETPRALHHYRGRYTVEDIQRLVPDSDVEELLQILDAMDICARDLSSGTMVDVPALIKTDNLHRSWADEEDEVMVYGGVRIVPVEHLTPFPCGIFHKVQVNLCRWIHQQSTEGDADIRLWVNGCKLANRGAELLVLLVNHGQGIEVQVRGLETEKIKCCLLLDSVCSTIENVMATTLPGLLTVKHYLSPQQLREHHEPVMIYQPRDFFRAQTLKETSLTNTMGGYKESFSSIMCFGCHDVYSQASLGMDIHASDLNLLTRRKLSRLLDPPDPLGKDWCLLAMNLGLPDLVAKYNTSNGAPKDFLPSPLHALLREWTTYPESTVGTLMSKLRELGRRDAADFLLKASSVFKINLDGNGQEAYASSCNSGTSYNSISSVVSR
RIPK2, sequence (O43353 whole entry): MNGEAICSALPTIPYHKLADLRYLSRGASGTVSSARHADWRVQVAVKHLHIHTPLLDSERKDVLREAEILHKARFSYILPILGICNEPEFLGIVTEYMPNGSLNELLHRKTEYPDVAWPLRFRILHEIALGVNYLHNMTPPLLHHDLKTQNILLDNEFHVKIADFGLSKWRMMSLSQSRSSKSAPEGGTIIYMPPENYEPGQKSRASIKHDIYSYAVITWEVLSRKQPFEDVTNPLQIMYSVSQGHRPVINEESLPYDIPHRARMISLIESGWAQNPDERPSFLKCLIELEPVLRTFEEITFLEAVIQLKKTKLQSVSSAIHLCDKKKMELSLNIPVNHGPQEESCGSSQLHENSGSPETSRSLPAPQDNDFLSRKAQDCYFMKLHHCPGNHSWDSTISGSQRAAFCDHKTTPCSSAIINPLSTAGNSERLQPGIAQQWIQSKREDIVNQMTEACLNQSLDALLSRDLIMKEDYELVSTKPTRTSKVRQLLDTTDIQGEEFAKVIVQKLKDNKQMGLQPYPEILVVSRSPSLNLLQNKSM

`C=C(C)[C@H]1CC=C(C)C(=O)C1` [S-carvone]: the remaining binding at 100 µM was found to be 77% in test [1]; 95% in test [2]; 100% in test [3]; 87% in [4]; 57% in test [5]; 84% in [6]. Further, the remaining binding at 100 µM in [7] is 82%; in test [8], 80%; in [9], 76%; in [10], 70%; in [11] it was 77%; in test [12], 65%. In addition, the remaining binding at 100 µM in [13] amounted to 58%; in test [14], 97%.
